Where two headings read alike, the source gives them in different places.
Assays:
SUDHL5 [1] = assay: Induction of caspase-3/7 activity (Caspase-Glo 3/7), SUDHL5; type: cell-based; settings: caspase-3/7 induction, SUDHL5 cells, 3 h treatment, median
How it was run: (§1)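 DLBCL lines SUDHL5 and SUDHL10 treated with compounds for 3 h at 37 °C; caspase-3/7 activity read by Caspase-Glo 3/7 luminescence. Medium-only background subtracted; EC50 fitted with bottom fixed at 1 and top fixed at the reference compound's maximal induction.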

SUDHL10 [2] = assay: Induction of caspase-3/7 activity (Caspase-Glo 3/7), SUDHL10; type: cell-based; settings: caspase-3/7 induction, SUDHL10 cells, 3 h treatment, median
How it was run: as §1

A2780 = assay: Anti-proliferative effect (CellTiter-Glo, 72 h), A2780; type: cell-based; settings: A2780 cells, median, read-out: IC50 antiproliferation assay A2780 [M] (median)
How it was run: (§2)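 Cells plated and incubated with compounds for 72 h at 37 °C, with a parallel day 0 reference plate for time-zero signal. Viability read by CellTiter-Glo luminescence after 10 min, measured identically on the day 0 and 72 h plates.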

MV-4-11 = assay: Anti-proliferative effect (CellTiter-Glo, 72 h), MV-4-11; type: cell-based; settings: MV-4-11 cells, median, read-out: IC50 antiproliferation assay MV-4-11 [M] (median)
Experimental: Assessment of the Anti-Proliferative Effect of Compounds in Different Cell Lines
The impact of compounds on the proliferation of different cell lines was assessed using the CellTiter-Glo® Luminescent Cell Viability reagent from Promega (G7573). Of note, SUDHL10 and SUDHL5 (DLBCL), NCI-H929 (Multiple Myeloma), A2780 (ovarian carcinoma) as well as MV-4-11(AML) cells are sensitive to MCL-1 inhibition.
In parallel, cells were plated in a reference (day 0) plate for time zero determination.
Rim wells were excluded. The cells were incubated for 72 h hours in a humidified incubator at 37° C. The day 0 plate was measured by adding 30 μl/well of CTG solution (CellTiter-Glo® Luminescent Cell Viability reagent, Promega G7573) to time zero wells in the reference plate followed by a 10 minutes incubation and luminescence reading at 0.1 ms, using the PHERAstar FS microplate reader (BMG Labtech).
After 72 h incubation, the treated plates were measured in the same way as the day 0 plate mentioned above.

SUDHL5 [3] = assay: Induction of cytotoxicity (CellTiter-Glo, 5 h), SUDHL5
MCL-1 = MCL-1 (Homo sapiens, UniProt Q07820); assay: Protein-protein interaction assay MCL-1/Noxa BH3 peptide (MCL-1 assay), TR-FRET; type: binding; settings: MBP-MCL-1 / Noxa BH3-derived peptide, median
Chain of MCL-1 (Q07820 whole entry): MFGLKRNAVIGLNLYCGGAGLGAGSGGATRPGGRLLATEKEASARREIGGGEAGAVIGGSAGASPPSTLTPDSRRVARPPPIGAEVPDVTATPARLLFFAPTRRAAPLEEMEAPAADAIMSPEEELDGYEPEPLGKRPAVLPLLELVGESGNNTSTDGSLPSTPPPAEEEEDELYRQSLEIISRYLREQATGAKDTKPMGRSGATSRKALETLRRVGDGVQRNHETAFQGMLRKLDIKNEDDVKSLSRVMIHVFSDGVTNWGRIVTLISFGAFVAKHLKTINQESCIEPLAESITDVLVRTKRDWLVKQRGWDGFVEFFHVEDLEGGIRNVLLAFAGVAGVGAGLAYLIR
How it was run: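 IC50 came from a 4-parameter fit of the normalized 665/620 nm TR-FRET ratio (anti-MBP Eu-cryptate/streptavidin-XL665). Compounds (0.1 nM–20 μM, duplicates) were preincubated 10 min at 22 °C with 1 nM MBP-MCL-1 in pH 7 Tris/NaCl/KF buffer, then read after 1 h at 22 °C plus overnight at 4 °C.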

SUDHL10 [4] = assay: Induction of cytotoxicity (CellTiter-Glo, 5 h), SUDHL10
SUDHL5 [5] = assay: Anti-proliferative effect (CellTiter-Glo, 72 h), SUDHL5; type: cell-based; settings: SUDHL5 cells, antiproliferation, 72 h incubation, median, read-out: Antiproli SUDHL5 [M] (median)
How it was run: as §2

[6] = read-out: Cytotox SUDHL5 [M] (median), SUDHL5 cells, cytotoxicity induction, CellTiter-Glo, 5 h incubation, median
[7] = read-out: Cytotox SUDHL10 [M] (median), SUDHL10 cells, cytotoxicity induction, CellTiter-Glo, 5 h incubation, median
[8] = read-out: Cytotox SUDHL5 [M] (median), SUDHL5 cells, cytotoxicity induction, CellTiter-Glo, 5 h, median
[9] = Homo sapiens, SU-DHL10, 5 h, read-out: Cytotox SUDHL10 [M] (median), SUDHL10 cells, cytotoxicity induction, CellTiter-Glo, 5 h, median
[10] = Homo sapiens, SU-DHL-5, 5 h, read-out: Cytotox SUDHL5 [M] (median), SUDHL5 cells, cytotoxicity induction, CellTiter-Glo, 5 h, median
[11] = read-out: Cytotox SUDHL10 [M] (median), SUDHL10 cells, cytotoxicity induction, CellTiter-Glo, 5 h, median

SMILES	EC50 (SUDHL10 [2]; Homo sapiens, SU-DHL10, 3 h) [µM]	IC50 (A2780; Homo sapiens, A2780, 72 h) [M]	IC50 (MV-4-11; Homo sapiens, MV4-11, 72 h) [M]	IC50 (MCL-1) [µM]	EC50 (SUDHL5 [1]) [µM]	EC50 (SUDHL10 [2]) [µM]	IC50 (MV-4-11) [M]	IC50 (A2780) [M]	other results
Cc1nn(C)c2c1-c1cccc3c(CCCOc4cccc5ccccc45)c(C(=O)O)n(c13)CCCCN(C)C2 (single isomer, unassigned) [Example 239, (−)-1,3,15-trimethyl-7-[3-(naphthalen-1-yloxy)propyl]-1,10,11,12,13,14,15,16-octahydropyrazolo[4′,3′:4,5][1,7]diazacyclododecino[3,2,1-hi]indole-8-carboxylic Acid]	> 33	2.27e-05	1.07e-05	0.0927	–	–	–	–	EC50 (SUDHL5 [1]; Homo sapiens, SU-DHL-5, 3 h): > 33 µM; IC50 (SUDHL5 [3]; Homo sapiens, SU-DHL-5, 5 h, read-out: Cytotox SUDHL5 [M] (median), SUDHL5 cells, cytotoxicity induction, CellTiter-Glo, 5 h incubation, median): > 3.3e-05 M; IC50 (SUDHL10 [4]; Homo sapiens, SU-DHL10, 5 h, read-out: Cytotox SUDHL10 [M] (median), SUDHL10 cells, cytotoxicity induction, CellTiter-Glo, 5 h incubation, median): 3.03e-05 M
CCc1nn(C)c2c1-c1c(C)ccc3c(C(C)CCOc4cccc5cc(F)ccc45)c(C(=O)O)n(c13)CCCCOC2 (single isomer, unassigned) [Example 265, 3-ethyl-7-{4-[(6-fluoronaphthalen-1-yl)oxy]butan-2-yl}-1,4-dimethyl-1,10,11,12,13,15-hexahydropyrazolo[4′,3′:9,10][1,6]oxazacycloundecino[8,7,6-hi]indole-8-carboxylic Acid]	–	–	2.75e-06	0.00585	2.71	10.1	–	–	IC50 (SUDHL5 [3]; [6]): 2.09e-06 M; IC50 (SUDHL5 [5]): 2.58e-06 M; IC50 (SUDHL10 [4]; [7]): 7.35e-06 M
CN1CCCn2c(C(=O)O)c(CCCOc3cccc4ccccc34)c3cccc(c32)-c2c(nn(C)c2COc2ccc(N3CCN(S(=O)(=O)N(C)C)CC3)cc2)C1 (single isomer, unassigned; enantiomer 1) [Example 1-112, 11-({4-[4-(Dimethylsulfamoyl)piperazin-1-yl)phenoxy]methyl}-7,10-dimethyl-1-[3-(1-naphthyloxy)propyl]-4,5,6,7,8,10-hexahydropyrazolo[3′,4′:7,8][1,5]diazecino[9,10,1-hi]indole-2-carboxylic Acid (Enantiomer 1)]	–	–	–	0.012	2.32	3.34	2.69e-06	–	IC50 (SUDHL5 [3]; [6]): 3.3e-06 M; IC50 (SUDHL5 [5]): 2.72e-06 M; IC50 (SUDHL10 [4]; [7]): 5.46e-06 M
CCc1nn(C)c2c1-c1cccc3c(CCCOc4cccc5cc(Cl)ccc45)c(C(=O)O)n(c13)CCCCOC2 (single isomer, unassigned; enantiomer 1) [Example 305, 7-{3-[(6-chloronaphthalen-1-yl)oxy]propyl}-3-ethyl-1-methyl-1,10,11,12,13,15-hexahydropyrazolo[4′,3′:9,10][1,6]oxazacycloundecino[8,7,6-hi]indole-8-carboxylic Acid (Enantiomer 1)]	–	–	1.36e-05	0.00536	–	–	–	> 3.3e-05	–
Cc1ccc2c(OCCCc3c(C(=O)O)n4c5c(cccc35)-c3c(nn(C)c3C)COCCCC4)cccc2c1 (single isomer, unassigned; enantiomer 1) [Example 308, 2,3-dimethyl-7-{3-[(6-methylnaphthalen-1-yl)oxy]propyl}-2,10,11,12,13,15-hexahydropyrazolo[4′3′:9,10][1,6]oxazacycloundecino[8,7,6-hi]indole-carboxylic Acid (Enantiomer 1)]	> 33	> 3.3e-05	> 3.3e-05	0.00507	7.18	–	–	–	IC50 (SUDHL5 [3]; [8]): 5.61e-06 M; IC50 (SUDHL10 [4]; [9]): > 3.3e-05 M
Cc1c2c(nn1C)COCCCCn1c(C(=O)O)c(CCCOc3cccc4cc(C(F)(F)F)ccc34)c3cccc-2c31 (single isomer, unassigned; enantiomer 1) [Example 311, 2,3-dimethyl-7-(3-{[6-(trifluoromethyl)naphthalen-1-yl]oxy}propyl)-2,10,11,12,13,15-hexahydropyrazolo[4′,3′:9,10][1,6]oxazacycloundecino[8,7,6-hi]indole-8-carboxylic Acid (Enantiomer 1)]	> 33	1.11e-05	1.16e-05	0.543	–	–	–	–	EC50 (SUDHL5 [1]; Homo sapiens, SU-DHL-5, 3 h): > 33 µM; IC50 (SUDHL5 [3]; [10]): 2.12e-05 M; IC50 (SUDHL10 [4]; [9]): 1.49e-05 M
CCc1nn(C)c2c1-c1cccc3c(CCCOc4cccc5cc(C(F)(F)F)ccc45)c(C(=O)O)n(c13)CCCCOC2 (single isomer, unassigned; enantiomer 1) [Example 314, 3-ethyl-1-methyl-7-(3-{[6-(trifluoromethyl)naphthalen-1-yl]oxy}propyl)-1,10,11,12,13,15-hexahydropyrazolo[4′,3′:9,10][1,6]oxazacycloundecino[8,7,6-hi]indole-8-carboxylic Acid (Enantiomer 1)]	> 33	1.56e-05	1.35e-05	0.0335	–	–	–	–	EC50 (SUDHL5 [1]; Homo sapiens, SU-DHL-5, 3 h): > 33 µM; IC50 (SUDHL5 [3]; [10]): 1.56e-05 M; IC50 (SUDHL10 [4]; [9]): 2.09e-05 M
CCc1nn(C)c2c1-c1cccc3c(CCCOc4cccc5cc(Cl)ccc45)c(C(=O)O)n(c13)CCCCOC2 (single isomer, unassigned; enantiomer 2) [Example 306, 7-{3-[(6-chloronaphthalen-1-yl)oxypropyl}-3-ethyl-1-methyl-1,10,11,12,13,15-hexahydropyrazolo[4′,3′:9,10](1,6]oxazacycloundecino[8,7,6-hi]indole-8-carboxylic Acid (Enantiomer 2)]	–	–	–	0.286	–	–	1.5e-05	1.02e-05	–
Cc1ccc2c(OCCCc3c(C(=O)O)n4c5c(cccc35)-c3c(nn(C)c3C)COCCCC4)cccc2c1 (single isomer, unassigned; enantiomer 2) [Example 309, 2,3-dimethyl-7-{3-[(6-methylnaphthalen-1-yl)oxy]propyl}-2,10,11,12,13,15-hexahydropyrazolo[4′3′:9,10][1,6]oxazacycloundecino[8,7,6-hi]indole-8-carboxylic Acid (Enantiomer 2)]	–	–	–	0.133	> 33	> 33	> 3.3e-05	> 3.3e-05	IC50 (SUDHL5 [3]; [8]): > 3.3e-05 M; IC50 (SUDHL10 [4]; [11]): > 3.3e-05 M
Cc1c2c(nn1C)COCCCCn1c(C(=O)O)c(CCCOc3cccc4cc(C(F)(F)F)ccc34)c3cccc-2c31 (single isomer, unassigned; enantiomer 2) [Example 312, 2,3-dimethyl-7-(3-{[6-(trifluoromethyl)naphthalen-1-yl]oxy}propyl)-2,10,11,12,13,15-hexahydropyrazolo[4′,3′:9,10][1,6]oxazacycloundecino[8,7,6-hi]indole-8-carboxylic Acid (Enantiomer 2)]	–	–	–	0.022	–	–	1.28e-05	1.05e-05	–
CCc1nn(C)c2c1-c1cccc3c(CCCOc4cccc5cc(C(F)(F)F)ccc45)c(C(=O)O)n(c13)CCCCOC2 (single isomer, unassigned; enantiomer 2) [Example 315, 3-ethyl-1-methyl-7-(3-{[6-(trifluoromethyl)naphthalen-1-yl]oxy}propyl)-1,10,11,12,13,15-hexahydropyrazolo[4′,3′:9,10][1,6]oxazacycloundecino[8,7,6-hi]indole-8-carboxylic Acid (Enantiomer 2)]	–	–	–	0.919	> 33	20.1	1.16e-05	8.63e-06	IC50 (SUDHL5 [3]; [8]): 1.48e-05 M; IC50 (SUDHL10 [4]; [11]): 1.58e-05 M

From patent US10981932B2, “Macrocyclic indole derivatives” (Bayer Aktiengesellschaft, priority 2016, dated 2021)
